Measured values taken from PMC12677844, “Profiling Inhibitor Scaffolds for the Cancer Target Jumonji‐C Domain‐Containing Protein 6” (Chemmedchem, 2025).
Several values for one entry are separate records, joined by “and”; a condition that tells them apart may be missing. Identical values can stand only once. Like-named read-outs stand apart in the source and are kept apart here.

Key:
full‐length His6‐JMJD6 = target: T1, full‐length His6‐JMJD6 (Homo sapiens, UniProt Q6NYC1); assay: JMJD6 SPE–MS inhibition assay (BRD4_511–550 hydroxylation); type: biochemical; settings: for IC50: His6‐JMJD6 0.05 µM, 2OG 100 µM, FAS 2 µM, BRD4_511–550 1 µM, L‐ascorbic acid 100 µM, means of two independent runs (mean ± SD)
T1 construct: Isolated recombinant full‐length human JMJD6 with a N‐terminal His6‐tag; made in house; host or cells: Escherichia coli BL21 (DE3)
Description: Co‐substrate concentrations were chosen based on reported SPE–MS kinetic parameters for the JMJD6‐catalyzed BRD4_511–550 monohydroxylation reaction.^[ [56] ^] […] Since JMJD6 has a relatively high 2OG Kmapp , the JMJD6 SPE–MS inhibition assay employs a 2OG concentration which is relatively high compared to most other 2OG oxygenase SPE–MS assays, possibly more accurately reflecting cellular 2OG concentrations.^[ [59] ^, [60] ^] Likely saturating concentrations of LAA (100 µM) and FAS (2 µM) were used.
JMJD6 catalyzes oxidation of BRD4_511–550 to give multiple hydroxylation products,^[ [56] ^] an observation potentially complicating data analysis.
Isolated recombinant full‐length human JMJD6 with a N‐terminal His6‐tag was produced in Escherichia coli BL21 (DE3) cells and purified as reported.^[ [1] ^, [56] ^] […] Purified His6‐JMJD6 was stored at −78 °C; fresh aliquots were used for all JMJD6 assays.
DMSO and 2,4‐PDCA (final assay concentration: 500 µM) were used as negative and positive inhibition controls, respectively. Each reaction was performed in technical duplicates in adjacent wells of the assay plates.
Cosubstrate/cofactor stock solutions (L‐ascorbic acid, LAA: 50 mM in Milli‐Q Ultrapure grade water; 2‐oxoglutarate, 2OG: 20 mM in Milli‐Q Ultrapure grade water; ammonium iron(II) sulfate hexahydrate, FAS, (NH4)2Fe(SO4)2·6H2O: […] in 20 mM aqueous HCl diluted to 1 mM in Milli‐Q Ultrapure grade water) were freshly prepared from commercial solids (Sigma–Aldrich) on the day of the experiment. BRD4_511–550 ([…]) was synthesized by solid‐phase peptide synthesis and was purified by GL Biochem (Shanghai) Ltd (Shanghai, China). Stock solutions of BRD4_511–550 (10 mM in water) were stored at −20 °C.
The plates were centrifuged (1000 rpm, 5 s) and incubated for 15 min at ambient temperature. The substrate mixture (2 × final concentration), containing BRD4_511–550 (2 µM), LAA (200 µM), 2OG (200 µM), and FAS (4 µM) in Tris buffer (50 mM; pH 7.5), was then dispensed across the plates (25 µL per well) using the multidrop dispenser. The plates were centrifuged (1000 rpm, 5 s) and incubated for 20 min at ambient temperature. The enzyme reaction was then stopped by the addition of 10%v/v aqueous formic acid (5 μL per well) using a 16‐channel electronic pipette (ThermoFischer Scientific). The plates were then centrifuged (1000 rpm, 30 s) and analyzed by MS.
Assay samples were aspirated under vacuum for 0.4 s and then loaded onto a C4 SPE cartridge. After loading, the C4 SPE cartridge was washed with 0.1%v/v aqueous formic acid to remove nonvolatile buffer salts (5 s, 1.5 mL min^−1). BRD4_511–550 and the corresponding hydroxylated product peptides were eluted from the SPE cartridge with 0.1%v/v aqueous formic acid in 75/25v/v acetonitrile/water into the mass spectrometer (5 s, 1.6 mL min^−1); the SPE cartridge was subsequently re‐equilibrated with 0.1%v/v aqueous formic acid (1 s, 1.25 mL min^−1).
Peaks corresponding to the m/z + 5 charge states of BRD4_511–550 and the corresponding mono‐ and dihydroxylated product peptides were extracted from the ion chromatogram and integrated using RapidFire Integrator 4.3.0 (Agilent).
From the raw data, dose–response curves (normalized to the 2,4‐PDCA and DMSO controls) were obtained by nonlinear regression (GraphPad Prism 5), which were used to determine IC50 values.

JMJD6 [1] = test system: JMJD6; set-up: method as in PMID 34581506; settings: 10 µM JMJD6, 100 µM LUC7L2_267–278; ref [35]; read-out: reported IC50 (JMJD6, MALDI‐TOF MS) (converted); cited from earlier work
PHD2 = test system: PHD2; set-up: method as in PMID 39291299; settings: isolated PHD2; ref [100]; cited from earlier work
JMJD6 [2] = test system: JMJD6; set-up: method as in PMID 35969736; settings: Succinate‐Glo and MALDI‐TOF assays; ref [31]; read-out: reported IC50 (JMJD6 lysine hydroxylation); cited from earlier work
JMJD6 [3] = test system: JMJD6; set-up: method as in PMID 31857835; settings: fluorescence‐based assay; ref [32]; read-out: reported IC50 (JMJD6‐catalyzed histone dimethylarginine N‐demethylation); cited from earlier work
JMJD6 [4] = test system: JMJD6; set-up: method as in PMID 33991627; settings: substrate other than BRD4_511–550, 2OG 10 μM, JMJD6 10 µM; ref [33]; read-out: reported IC50 (JMJD6, Succinate‐Glo) (converted); cited from earlier work
JMJD6 [5] = test system: JMJD6; set-up: method as in PMID 31637004; settings: assay conditions not described; ref [20]; read-out: reported IC50 (JMJD6) (converted); cited from earlier work

SMILES: O=C(O)/C=C/C(=O)O [Fumarate]
- IC50 (full‐length His6‐JMJD6; read-out: IC50 (JMJD6, SPE–MS)): > 50 µM
- IC50 (JMJD6 [1]): 165 µM

SMILES: O=C(O)/C=C/C(=O)N(O)CCCCNCc1ccc(COC(=O)Nc2cccc3ccccc23)cc1 [JMJD histone demethylase inhibitor III]
- IC50 (full‐length His6‐JMJD6; read-out: IC50 (JMJD6, SPE–MS)): ~0.1 µM and 0.1 µM

SMILES: O=C(O)CCNc1cc(N2CCc3ccccc3CC2)nc(-c2ccccn2)n1 [GSK‐J1]
- IC50 (full‐length His6‐JMJD6; read-out: IC50 (JMJD6, SPE–MS)): > 50 µM

SMILES: O=C(O)CNC(=O)c1c(O)c2ccccc2n(OCC2CC2)c1=O [Desidustat]
- IC50 (full‐length His6‐JMJD6; read-out: IC50 (JMJD6, SPE–MS)): ~2.7 µM and 2.7 µM
- IC50 (PHD2): 1.3 µM

SMILES: CN(C)NC(=O)CCC(=O)O [Daminozide]
- IC50 (full‐length His6‐JMJD6; IC50 (JMJD6, SPE–MS)): > 50 µM
- IC50 (JMJD6 [1]): 94 µM

SMILES: Cc1ccc2oc(=O)c(-c3nc4cnccc4[nH]3)cc2c1 [WL12]
- IC50 (JMJD6 [2]): > 100 µM
- IC50 (full‐length His6‐JMJD6; read-out: IC50 (JMJD6, SPE–MS)): > 50 µM
- IC50 (JMJD6 [3]): ~0.22 µM and 0.22 µM

SMILES: O=C(O)CC[C@@H](O)C(=O)O [D‐2‐Hydroxyglutarate]
- IC50 (full‐length His6‐JMJD6; read-out: IC50 (JMJD6, SPE–MS)): > 50 µM
- IC50 (JMJD6 [1]): 622 µM

SMILES: O=C(O)c1cnn(-c2nc3cc(OC(F)(F)F)c(Cl)cc3[nH]2)c1 [JNJ‐42041935]
- IC50 (full‐length His6‐JMJD6; read-out: IC50 (JMJD6, SPE–MS)): > 50 µM

SMILES: Cc1nc(C(=O)NCC(=O)O)c(O)c2ccc(Oc3ccccc3)cc12 [Roxadustat]
- IC50 (full‐length His6‐JMJD6; read-out: IC50 (JMJD6, SPE–MS)): > 50 µM
- IC50 (JMJD6 [1]): 23 µM

SMILES: O=C(O)CNC(=O)C1=C(O)CCN(Cc2ccc(Oc3ccc(Cl)cc3)nc2)C1=O [TP0463518]
- IC50 (full‐length His6‐JMJD6; read-out: IC50 (JMJD6, SPE–MS)): ~1.1 µM and 1.1 µM

SMILES: Cn1ccc(-c2cc(C(=O)O)ccn2)n1 [Compound 10a]
- IC50 (JMJD6 [4]): ~1.7 µM and 1.7 µM
- IC50 (full‐length His6‐JMJD6; read-out: IC50 (JMJD6, SPE–MS)): ~0.07 µM and 0.07 µM
- fold more potent than Compound 7p in inhibiting JMJD6 (full‐length His6‐JMJD6; SPE–MS IC50 comparison): ≈ 60 fold
- ligand efficiency (LE) (full‐length His6‐JMJD6; from JMJD6 SPE–MS potency): 0.67
- fold less potent in Succinate‐Glo assay than in SPE–MS assay (full‐length His6‐JMJD6; reported Succinate‐Glo IC50 versus SPE–MS IC50): ≈ 25 fold

SMILES: Cn1ccc(-c2cc(C(=O)OCC(F)(F)F)ccn2)n1 [Compound 7p]
- IC50 (JMJD6 [4]): 0.68 µM
- IC50 (full‐length His6‐JMJD6; read-out: IC50 (JMJD6, SPE–MS)): ~4.2 µM and 4.2 µM

SMILES: CC(C)(NC(=O)c1c(O)c2ccccc2n(OCc2cscn2)c1=O)C(=O)O [Compound 48]
- IC50 (full‐length His6‐JMJD6; read-out: IC50 (JMJD6, SPE–MS)): ~7.1 µM and 19 µM

SMILES: CN(c1ccccc1)c1ccc2c(c1)CCC[C@H]2CNc1cnccc1C(=O)O [QC6352]
- IC50 (full‐length His6‐JMJD6; read-out: IC50 (JMJD6, SPE–MS)): ~2.8 µM and 2.8 µM

SMILES: CC(C)c1cc(C(=O)N2CC[C@@H](NC(=O)C3CC3)C2)[nH]n1 [KDM5A‐IN‐1]
- IC50 (full‐length His6‐JMJD6; read-out: IC50 (JMJD6, SPE–MS)): > 50 µM

SMILES: Oc1ccnc(N/N=C/c2ccccc2O)n1 [SKLB325]
- IC50 (full‐length His6‐JMJD6; read-out: IC50 (JMJD6, SPE–MS)): ~6.7 µM and 6.7 µM
- IC50 (JMJD6 [5]): 0.78 µM

SMILES: O=C(O)CC(O)(CC(=O)O)C(=O)O [Citrate]
- IC50 (full‐length His6‐JMJD6; read-out: IC50 (JMJD6, SPE–MS)): > 50 µM
- IC50 (JMJD6 [1]): 987 µM

SMILES: O=C(O)CNC(=O)c1c(O)c2ccccc2n(Cc2ccccc2)c1=O [IOX2]
- IC50 (full‐length His6‐JMJD6; read-out: IC50 (JMJD6, SPE–MS)): ~19 µM and 7.1 µM

SMILES: O=C(O)CC(O)C(=O)O (stereo not drawn) [Malate]
- IC50 (full‐length His6‐JMJD6; IC50 (JMJD6, SPE–MS)): > 50 µM
- IC50 (JMJD6 [1]): 5100 µM

SMILES: O=C(NCC1CCC(C(F)(F)F)CC1)c1cnc(-n2cccn2)cc1O (stereo not drawn) [IOX5]
- IC50 (full‐length His6‐JMJD6; read-out: IC50 (JMJD6, SPE–MS)): > 50 µM

SMILES: O=C(O)c1ccncc1NCc1ccco1 [Compound 34]
- IC50 (full‐length His6‐JMJD6; read-out: IC50 (JMJD6, SPE–MS)): ~2.6 µM and 2.6 µM
